Measured values taken from ChEMBL document CHEMBL1130574, “5-HT1A and 5-HT2A ligands with anxiolytic and antipanic-like properties” (Bioorg Med Chem Lett, 1997).
Active and inactive are the calls of the source. The rule behind the calls is not given here.

Columns and labels:
D(2) dopamine receptor = D(2) dopamine receptor (Rattus norvegicus, UniProt P61169); experiment: Binding affinity against D2 receptor in rat striatum using [3H]raclopride; type: tissue-based
[1] = target: T1, 5-hydroxytryptamine receptor 1A (Rattus norvegicus, UniProt P19327); experiment: Binding affinity against 5-hydroxytryptamine 1A receptor of rat hippocampus using [3H]8-OH-DPAT; type: tissue-based
T1 sequence (P19327 whole entry): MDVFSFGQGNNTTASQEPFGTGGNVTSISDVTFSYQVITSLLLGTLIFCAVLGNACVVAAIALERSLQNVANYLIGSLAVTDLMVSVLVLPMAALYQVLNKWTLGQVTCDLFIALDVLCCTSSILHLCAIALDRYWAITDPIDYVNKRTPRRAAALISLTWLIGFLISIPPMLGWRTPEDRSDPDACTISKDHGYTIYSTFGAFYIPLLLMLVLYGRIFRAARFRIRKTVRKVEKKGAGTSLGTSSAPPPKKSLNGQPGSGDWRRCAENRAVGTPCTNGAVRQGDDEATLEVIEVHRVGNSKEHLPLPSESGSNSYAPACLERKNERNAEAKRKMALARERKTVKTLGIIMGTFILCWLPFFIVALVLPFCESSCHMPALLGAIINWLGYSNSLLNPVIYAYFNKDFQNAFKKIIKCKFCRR

[2] = target: 5-hydroxytryptamine receptor 2A (Rattus norvegicus, UniProt P14842); experiment: Binding affinity for 5-hydroxytryptamine 2A receptor in rat cortex using [3H]ketanserin; type: tissue-based
[3] = target: T2, 5-hydroxytryptamine receptor 2C (Rattus norvegicus, UniProt P08909); experiment: Binding affinity against 5-hydroxytryptamine 2C receptor in rat choroid plexus using [3H]N-methyl-mesulergine
T2 sequence (P08909 whole entry): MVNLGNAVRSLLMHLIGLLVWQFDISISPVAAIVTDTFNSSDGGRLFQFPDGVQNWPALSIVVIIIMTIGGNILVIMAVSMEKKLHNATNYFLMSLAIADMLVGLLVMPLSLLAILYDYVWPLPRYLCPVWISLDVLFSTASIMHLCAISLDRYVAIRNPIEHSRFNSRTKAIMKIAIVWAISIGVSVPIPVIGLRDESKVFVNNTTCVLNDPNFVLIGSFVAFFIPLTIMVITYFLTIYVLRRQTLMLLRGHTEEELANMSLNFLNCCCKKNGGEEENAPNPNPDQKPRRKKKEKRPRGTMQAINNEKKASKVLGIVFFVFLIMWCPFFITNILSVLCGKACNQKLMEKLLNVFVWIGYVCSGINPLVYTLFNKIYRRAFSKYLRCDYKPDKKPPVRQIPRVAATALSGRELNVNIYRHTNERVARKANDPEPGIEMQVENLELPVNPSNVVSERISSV

[4] = target: T3, Adrenergic receptor alpha-1 (Rattus norvegicus, UniProt P15823+P23944+P43140); experiment: Binding affinity against Alpha-1 adrenergic receptor in rat cortex using [3H]prazosin; type: tissue-based, Brain
T3 sequence (P15823 whole entry): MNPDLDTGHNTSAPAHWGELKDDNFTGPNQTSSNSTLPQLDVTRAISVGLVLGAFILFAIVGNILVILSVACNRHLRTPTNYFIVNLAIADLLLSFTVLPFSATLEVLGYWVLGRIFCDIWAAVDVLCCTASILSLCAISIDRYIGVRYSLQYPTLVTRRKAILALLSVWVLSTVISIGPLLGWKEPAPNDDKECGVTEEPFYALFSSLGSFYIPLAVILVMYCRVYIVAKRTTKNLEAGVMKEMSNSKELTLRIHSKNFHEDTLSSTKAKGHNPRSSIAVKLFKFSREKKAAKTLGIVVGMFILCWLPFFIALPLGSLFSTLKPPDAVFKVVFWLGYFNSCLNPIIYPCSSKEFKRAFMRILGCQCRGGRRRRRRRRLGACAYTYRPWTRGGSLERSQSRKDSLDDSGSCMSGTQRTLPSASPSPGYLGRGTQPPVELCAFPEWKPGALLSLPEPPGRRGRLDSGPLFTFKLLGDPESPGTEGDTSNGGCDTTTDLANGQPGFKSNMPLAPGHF
T3 sequence (P23944 whole entry): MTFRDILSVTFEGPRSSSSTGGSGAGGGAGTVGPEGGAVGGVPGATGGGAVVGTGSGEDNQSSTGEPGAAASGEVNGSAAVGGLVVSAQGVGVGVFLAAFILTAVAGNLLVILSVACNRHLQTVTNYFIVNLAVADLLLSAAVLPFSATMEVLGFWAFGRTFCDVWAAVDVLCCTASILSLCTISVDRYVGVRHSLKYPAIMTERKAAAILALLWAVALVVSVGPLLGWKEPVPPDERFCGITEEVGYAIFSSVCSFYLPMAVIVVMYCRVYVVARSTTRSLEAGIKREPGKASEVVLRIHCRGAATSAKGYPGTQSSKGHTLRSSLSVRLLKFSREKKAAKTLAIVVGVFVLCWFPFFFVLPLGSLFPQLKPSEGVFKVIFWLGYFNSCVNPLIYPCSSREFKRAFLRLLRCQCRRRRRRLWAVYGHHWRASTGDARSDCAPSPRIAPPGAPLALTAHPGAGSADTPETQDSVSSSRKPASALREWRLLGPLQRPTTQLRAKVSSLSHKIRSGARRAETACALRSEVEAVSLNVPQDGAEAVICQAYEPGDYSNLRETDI
T3 sequence (P43140 whole entry): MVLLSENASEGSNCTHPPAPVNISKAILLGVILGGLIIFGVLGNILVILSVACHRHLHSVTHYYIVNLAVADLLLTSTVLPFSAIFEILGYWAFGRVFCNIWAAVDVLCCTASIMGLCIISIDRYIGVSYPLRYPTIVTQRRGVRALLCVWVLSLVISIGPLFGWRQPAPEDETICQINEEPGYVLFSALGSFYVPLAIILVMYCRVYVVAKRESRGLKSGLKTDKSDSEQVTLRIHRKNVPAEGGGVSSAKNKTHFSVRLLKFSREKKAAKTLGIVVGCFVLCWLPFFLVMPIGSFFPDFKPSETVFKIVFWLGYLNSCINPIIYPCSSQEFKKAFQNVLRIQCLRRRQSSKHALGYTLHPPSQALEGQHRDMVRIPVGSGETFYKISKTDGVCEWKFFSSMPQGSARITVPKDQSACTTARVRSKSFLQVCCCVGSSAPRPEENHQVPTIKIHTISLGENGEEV

Mus musculus [5] = experiment: 5-HT2 antagonist activity was assessed by the ability of compound to antagonise mescaline induced scratching at 16 mg/Kg administered intraperitoneally in mice; Inactive; type: functional, organism-based
Mus musculus [6] = experiment: Compound was tested for sedative activity in mice at the dose of 4 mg/kg perorally; active; type: functional, organism-based; set-up: dose 4 mg/kg
Mus musculus [7] = experiment: 5-HT2 antagonist activity was assessed by the ability of compound to antagonise 5-HTP induced head twitches at 4 mg/Kg administered intraperitoneally in mice; Inactive; type: functional, organism-based
Mus musculus [8] = experiment: 5-HT2 antagonist activity was assessed by the ability of compound to antagonise 5-HTP induced head twitches at 45 mg/Kg administered perorally in mice; type: functional; settings: po
Mus musculus [9] = experiment: 5-HT2 antagonist activity was assessed by the ability of compound to antagonise mescaline induced scratching at 8 mg/Kg administered perorally in mice; type: functional; settings: po
Mus musculus [10] = experiment: 5-HT2 antagonist activity was assessed by the ability of compound to antagonise 5-HTP induced head twitches at 128 mg/Kg administered perorally in mice; type: functional; settings: po
Mus musculus [11] = experiment: 5-HT2 antagonist activity was assessed by the ability of compound to antagonise mescaline induced scratching at 32 mg/Kg administered perorally in mice; type: functional; settings: po

Sequence of D(2) dopamine receptor (P61169 whole entry): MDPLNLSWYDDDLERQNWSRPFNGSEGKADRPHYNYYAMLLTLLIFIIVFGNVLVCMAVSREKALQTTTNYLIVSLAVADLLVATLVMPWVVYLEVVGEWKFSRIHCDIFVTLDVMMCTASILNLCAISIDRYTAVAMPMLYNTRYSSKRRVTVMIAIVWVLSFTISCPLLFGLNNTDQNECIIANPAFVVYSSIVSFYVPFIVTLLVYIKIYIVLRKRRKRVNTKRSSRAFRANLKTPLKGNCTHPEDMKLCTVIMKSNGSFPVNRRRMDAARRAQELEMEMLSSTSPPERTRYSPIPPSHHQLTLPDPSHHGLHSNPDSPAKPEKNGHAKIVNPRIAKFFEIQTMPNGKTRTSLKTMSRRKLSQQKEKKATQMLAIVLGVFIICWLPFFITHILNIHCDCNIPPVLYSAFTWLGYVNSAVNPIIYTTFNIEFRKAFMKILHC
Sequence of 5-hydroxytryptamine receptor 2A (P14842 whole entry): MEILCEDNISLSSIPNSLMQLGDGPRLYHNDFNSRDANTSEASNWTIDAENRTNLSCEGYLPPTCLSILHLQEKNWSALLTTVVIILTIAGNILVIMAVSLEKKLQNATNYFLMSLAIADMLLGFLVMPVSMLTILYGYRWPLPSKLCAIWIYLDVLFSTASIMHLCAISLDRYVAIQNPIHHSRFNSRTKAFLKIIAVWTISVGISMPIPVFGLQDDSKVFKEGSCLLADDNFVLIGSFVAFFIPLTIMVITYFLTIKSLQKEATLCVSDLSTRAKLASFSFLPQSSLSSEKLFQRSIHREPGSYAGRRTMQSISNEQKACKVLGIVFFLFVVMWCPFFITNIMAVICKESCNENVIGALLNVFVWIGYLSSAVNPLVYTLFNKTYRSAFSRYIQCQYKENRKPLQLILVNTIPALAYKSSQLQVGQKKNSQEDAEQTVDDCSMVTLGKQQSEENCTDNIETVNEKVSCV

Ki (D(2) dopamine receptor) | Ki [1] | Ki [2] | Ki [3] | Ki [4] | Structure (SMILES) | Activity (Mus musculus [5]) | Activity (Mus musculus [6]) | Activity (Mus musculus [7]) | inhibition in vivo at 45 mg/kg (Mus musculus [8]) | inhibition in vivo at 8 mg/kg (Mus musculus [9]) | inhibition in vivo at 128 mg/kg (Mus musculus [10]) | inhibition in vivo at 32 mg/kg (Mus musculus [11])
0.5 nM | 2 nM | 16 nM | 75 nM | – | COc1ccccc1N1CCN(CCCCc2ccc3c(c2)oc(=O)n3CCN2CCC(C(=O)c3ccc(F)cc3)CC2)CC1 | – | – | – | – | – | – | –
3 nM | 98 nM | 335 nM | 460 nM | 5 nM | COc1ccccc1N1CCN(CCCCc2ccc3c(c2)oc(=O)n3CCN2CCC(=C(c3ccc(F)cc3)c3ccc(F)cc3)CC2)CC1 | – | – | – | – | – | – | –
2 nM | 3 nM | 2 nM | 70 nM | – | COc1ccccc1N1CCN(CCCc2ccc3c(c2)sc(=O)n3CCN2CCC(C(=O)c3ccc(F)cc3)CC2)CC1 | – | – | – | – | – | – | –
1.4 nM | 49 nM | 120 nM | 250 nM | 13 nM | COc1ccccc1N1CCN(CCCCc2ccc3c(c2)OCC(=O)N3CCN2CCC(=C(c3ccc(F)cc3)c3ccc(F)cc3)CC2)CC1 | – | – | – | – | – | – | –
100 nM | 700 nM | 0.6 nM | 20 nM | 40 nM | O=C(c1ccc(F)cc1)C1CCN(CCn2c(=O)sc3cc(CCCCN4CCOCC4)ccc32)CC1 | inactive | Active | inactive | – | – | – | –
30 nM | 70 nM | 50 nM | > 10000 nM | 1000 nM | O=C(c1ccc(F)cc1)C1CCN(CCn2c(=O)sc3cc(CCCCN4CCN(c5cccc(C(F)(F)F)c5)CC4)ccc32)CC1 | – | – | – | – | – | – | –
1.2 nM | 7 nM | 2 nM | 240 nM | 5 nM | COc1ccccc1N1CCN(CCCCc2ccc3c(c2)sc(=O)n3CCN2CCC(C(=O)c3ccc(F)cc3)CC2)CC1 | – | – | – | 50% | 86% | 90% | 70%
5 nM | 5 nM | 7 nM | 110 nM | 5 nM | COc1ccccc1N1CCN(CCCCc2ccc3c(c2)sc(=O)n3CCN2CCC(=C(c3ccc(F)cc3)c3ccc(F)cc3)CC2)CC1 | – | – | – | – | – | – | –
5 nM | 6000 nM | 20 nM | 50 nM | 1 nM | COc1ccccc1N1CCN(CCc2ccc3c(c2)sc(=O)n3CCN2CCC(C(=O)c3ccc(F)cc3)CC2)CC1 | – | – | – | – | – | – | –
0.06 nM | 18 nM | 14 nM | 30 nM | 2 nM | COc1ccccc1N1CCN(CCCCc2ccc3c(c2)OCC(=O)N3CCN2CCC(C(=O)c3ccc(F)cc3)CC2)CC1 | – | – | – | – | – | – | –
